# In patent US20180177771A1, “BIOMARKERS FOR NANOPARTICLE COMPOSITIONS” (priority 2015, published 2018):
# Legend:
# [1] = test system: UMUC3 human bladder cancer xenografts; test: UMUC3 bladder cancer mouse xenograft, Part B combination study; settings: ABI-009 3 mg/kg twice weekly IV, gemcitabine 30 mg/kg twice weekly IP
# Method: The anti-tumor efficacy of a panel of drugs, including mitomycin C, cisplatin, gemcitabine, valrubicin, and docetaxel, in combination with Nab-sirolimus (such as ABI-009) were evaluated and compared in a UMUC3 cell xenograft model in athymic nude mice.
# Tumors were established from the UMUC3 cells as follows. Female athymic nude mice were obtained and housed in filter-topped cages supplied with autoclaved bedding. Animal handling procedures were under laminar flow hood. Each mouse was ear tagged for individual identification, and the body weight of each mouse was recorded. UMUC3 cells (10×10^6 cells per flank in 0.1 mL PBS with 20% Matrigel) were injected subcutaneously into the right flank of each mouse to implant the tumor. Tumor measurements were recorded three times per week (such as on Mondays, Wednesdays and Fridays) until tumors became approximately 60 to 160 mm^3 total. The mice were randomized for treatment once the average tumor volumes reached approximately 100 mm^2. Prior to the treatment, body weights and tumor measurements of all mice were recorded.
# In the Part B combination study, athymic mice bearing UMUC3 human bladder cancer xenografts were treated until study end with ABI-009 (3 mg/kg, twice weekly, IV via tail vein), mitomycin C (0.5 mg/kg, twice weekly, IP), cisplatin (3 mg/kg, twice weekly. IP), gemcitabine (30 mg/kg, twice weekly, IP), valrubicin (20 mg/kg, twice weekly, IP), and docetaxel (3 mg/kg, twice weekly, IP) either as single agent or in combination (ABI-009 plus chemotherapeutic agent). Animals were monitored for tumor volume and body weight.
# In each combination of drugs being administered comprising Nab-sirolimus and a second drug (such as MMC. Cis, GEM. Val, and Doc), the second drug was administered immediately before Nab-sirolimus. The mice were monitored during the course of the treatment by recording body weights three times per week (such as on Mondays, Wednesdays and Fridays), recording signs of distress daily, and recording tumor measurements three times per week (such as on Mondays. Wednesdays and Fridays). Measurements of tumor sizes and body weights were continued for 2 weeks following completion of the dosing regimen, or until the mouse was sacrificed when the tumor size of the mouse is more than 2000 mm^3.
# [2] = test system: ABCB1/ABCG2; settings: cited from earlier work
# [3] = in vivo; cited from earlier work
SMILES,animal survival compared with saline control [1],antitumor activity (tumor growth inhibition) compared with saline control [1],median survival ([1]; Log-rank test) [days],TGI ([1]; single agent or combination) [%],affinity for ABCB1/ABCG2 [2],brain penetration [3]
Nc1ccn([C@@H]2O[C@H](CO)[C@@H](O)C2(F)F)c(=O)n1 [gemcitabine],only modest effects,only modest effects,20,41.7,,
COc1ccc(COc2cc3oc(=O)c4cc(C(C)O)ccc4c3cc2OC)cc1 (stereo not drawn) [Palomid 529],,,,,lacks affinity for ABCB1/ABCG2,good brain penetration
